Test results: PubChem BioAssay AID180 (DTP/NCI, 2004)
“And” between values parts separate entries of the source, which are not always exact repeats. Equal entries are not always repeated.

Tested on: BDF1 mice, Adenocarcinoma 755 s.c., tumor weight T/C
Assay: NCI In Vivo Anticancer Drug Screen. Data for tumor model Adenocarcinoma 755 (subcutaneous) in B6D2F1 (BDF1) mice
Settings: endpoint: mean tumor weight, schedule: Q01DX011 (ip), higher = larger tumour
Procedure, shortened: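 In vivo antitumor screen on a transplantable tumor line. Result equals the measure in compound-treated animals divided by the same measure in vehicle controls.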

[1] = dose: 25.0 mg/kg/injection, vehicle: methylcellulose (MC)
[2] = dose: 20.0 mg/kg/injection, vehicle: methylcellulose (MC)
[3] = dose: 30.0 mg/kg/injection, vehicle: carboxymethylcellulose (CMC)
[4] = dose: 31.0 mg/kg/injection, vehicle: methylcellulose (MC)
[5] = dose: 250.0 mg/kg/injection, vehicle: methylcellulose (MC)

Cc1ccc(/C=N/Nc2nc3c(c(=O)n(C)c(=O)n3C)n2C)cc1
T/C [1]: 77 % of control
T/C (dose: 75.0 mg/kg/injection, vehicle: methylcellulose (MC)): 60 % of control
T/C (dose: 225.0 mg/kg/injection, vehicle: methylcellulose (MC)): 39 % of control

O=c1ccn(C2OC(CO)C(O)C2O)c(=O)[nH]1 (configuration not stated)
T/C (dose: 17.5 mg/kg/injection, vehicle: other): 57 % of control
T/C (dose: 35.0 mg/kg/injection, vehicle: other): 39 % of control
T/C (dose: 35.0 mg/kg/injection, vehicle: saline): 30 % of control
T/C (dose: 70.0 mg/kg/injection, vehicle: other): 105 % of control
T/C (dose: 70.0 mg/kg/injection, vehicle: saline): 75 % of control
T/C (dose: 140.0 mg/kg/injection, vehicle: other): 82 % of control
T/C (dose: 140.0 mg/kg/injection, vehicle: saline): 32 % of control
T/C (dose: 280.0 mg/kg/injection, vehicle: other): 56 % of control
T/C (dose: 280.0 mg/kg/injection, vehicle: saline): 42 % of control

CC(C)CCn1cnc2c(SCC(=O)O)nc(N)nc21
T/C [2]: 46 % of control
T/C (dose: 65.0 mg/kg/injection, vehicle: methylcellulose (MC)): 56 % of control
T/C (dose: 200.0 mg/kg/injection, vehicle: methylcellulose (MC)): 55 % of control

Clc1ncnc2c1ncn2C1CCCCC1
T/C (dose: 6.25 mg/kg/injection, vehicle: carboxymethylcellulose (CMC)): 91 % of control
T/C (dose: 12.5 mg/kg/injection, vehicle: carboxymethylcellulose (CMC)): 73 % of control
T/C (dose: 25.0 mg/kg/injection, vehicle: carboxymethylcellulose (CMC)): 81 % of control

CNc1ncnc2c1cnn2C
T/C (dose: 5.0 mg/kg/injection, vehicle: methylcellulose (MC)): 65 % of control
T/C (dose: 10.0 mg/kg/injection, vehicle: methylcellulose (MC)): 55 % of control
T/C [2]: 29 % of control

CS(=O)(=O)c1nc(N)nc2nc[nH]c12
T/C (dose: 3.75 mg/kg/injection, vehicle: carboxymethylcellulose (CMC)): 81 % of control
T/C (dose: 7.5 mg/kg/injection, vehicle: carboxymethylcellulose (CMC)): 93 % of control and 81 % of control
T/C [3]: 5 % of control and 12 % of control

CSc1ncc(Br)c(Nc2ccccc2Cl)n1
T/C (dose: 15.0 mg/kg/injection, vehicle: methylcellulose (MC)): 110 % of control
T/C [4]: 104 % of control
T/C [5]: 155 % of control

OCCn1cnc2c(SCc3ccccc3Cl)ncnc21
T/C (dose: 15.0 mg/kg/injection, vehicle: carboxymethylcellulose (CMC)): 77 % of control
T/C [1]: 97 % of control
T/C [3]: 49 % of control
T/C (dose: 60.0 mg/kg/injection, vehicle: carboxymethylcellulose (CMC)): 22 % of control
T/C (dose: 150.0 mg/kg/injection, vehicle: methylcellulose (MC)): 5 % of control

CCCOP(=S)(N1CC1C)N1CC1(C)C (configuration not stated)
T/C (dose: 0.5 mg/kg/injection, vehicle: carboxymethylcellulose (CMC)): 68 % of control
T/C (dose: 1.0 mg/kg/injection, vehicle: carboxymethylcellulose (CMC)): 104 % of control
T/C (dose: 12.0 mg/kg/injection, vehicle: carboxymethylcellulose (CMC)): 79 % of control
T/C (dose: 24.0 mg/kg/injection, vehicle: carboxymethylcellulose (CMC)): 61 % of control

[I][Hg][CH2]C1OC2CCC1C[CH]2[Hg][I] (configuration not stated)
T/C (dose: 6.0 mg/kg/injection, vehicle: carboxymethylcellulose (CMC)): 89 % of control

CSc1ncc(Br)c(NCc2ccccc2Cl)n1
T/C [1]: 65 % of control
T/C [4]: 106 % of control
T/C (dose: 62.0 mg/kg/injection, vehicle: methylcellulose (MC)): 103 % of control
T/C (dose: 125.0 mg/kg/injection, vehicle: methylcellulose (MC)): 85 % of control
T/C [5]: 80 % of control
